According to patent US20220213144A1, “HALOGENATED ANTIMICROBIAL PEPTOIDS” (priority 2019, published 2022):
In brackets after ≈: the same amount, converted by molar mass. Like-named read-outs stand apart in the source and are kept apart here. Square brackets hold non-standard residues; d marks the D form. Peptide text beside a SMILES is read from it. N(4-Br-benzyl)Gly = O=C(O)CNCc1ccc(Br)cc1; Nspe = C[C@H](NCC(=O)O)c1ccccc1; Nphe = O=C(O)CNCc1ccccc1; Nlys = NCCCCNCC(=O)O

How the values were obtained:
S. aureus ATCC 25923 = format: cell-based, Staphylococcus aureus; conditions: S. aureus ATCC 25923
Protocol: (§1) Bacterial growth inhibition was determined by using broth microdilution according to the Clinical Laboratory Standards Institute. The antibacterial activity of peptoids was tested against S. aureus ATCC 25923, ATCC29213, and methicillin resistant S. aureus USA 300, methicillin resistant S. epidermidis ATCC 51625, a biofilm producing methicillin resistant S. epidermidis […], P. aeruginosa Pa01 (H103), and E. coli ATCC 25922. Bacteria, grown on agar plates for 18 hours at 37° C., were diluted to ˜1×10^8 CFU/mL in Mueller-Hinton Broth II (MHB II). Twofold serial dilutions of peptoids in MHB II were inoculated with the bacteria to achieve a final concentration of 5×10^5 CFU/mL in polypropylene 96 U-well microtiter plates (Corning™ 3897; ThermoFisher Scientific, Roskilde), followed by incubation at 37° C. in ambient air for 18 hours. The MIC values were determined as the lowest concentration showing no visible bacterial growth. Experiments were performed twice (in technical triplicates) on different days.

[1] = tested on: methicillin-resistant S. aureus USA 300; format: cell-based, Staphylococcus aureus
Protocol: as §1

[2] = tested on: methicillin-restant S. epidermidis ATCC 51625; format: cell-based, Staphylococcus epidermidis; conditions: S. epidermidis ATCC 51625
Protocol: as §1

[3] = tested on: methicillin-restant S. epidermidis ET-024; format: cell-based, Staphylococcus epidermidis; conditions: S. epidermidis ET-024
Protocol: as §1

E. coli ATCC 25922 = format: cell-based, Escherichia coli
Protocol: as §1

P. aeruginosa PA01 = format: cell-based, Pseudomonas aeruginosa; conditions: P. aeruginosa PA01 H103
Protocol: as §1

[4] = Cell viability assay (MTS/PMS), HaCaT cell line; format: cell-based; conditions: human, text b151, read-out: IC50 (cytotoxicity, HaCaT)
Protocol: An immortalized human keratinocytes (HaCaT) cell line (Gift from David Gram Naym at Bispebjerg Hospital) was cultured to ˜90% confluence after 21-25 h of growth under standard conditions (5% CO2/95% 02 at 37° C.). Cells were cultured in Dulbecco's Modified Eagle's Medium supplemented with 10% (v/v) fetal bovine serum (FBS). All culture media were supplemented with penicillin (100 IU/mL) and streptomycin (100 μg/mL). All cell media and supplements were obtained from Sigma-Aldrich (St. Louis, Mo., United States). The 96-well plates were obtained from Corning Costar (Sigma-Aldrich, Brondby, Denmark).
Cell viability assessment was performed on cell monolayers grown to ˜90% confluence in 96-well plates using the MTS/PMS assay as previously described. Briefly, the adhered cells were washed with 37° C. PBS solution (ThermoFisher Scientific, Roskilde) and exposed for 1 h at 37° C. to 100 μL of peptoid dissolved in the medium also used for culturing of the cell line (at concentrations in the range 0-1000 μg/mL). The cells were then washed twice with 37° C. PBS. […] A plate reader (SpectraMax i3X; Molecular devices, San Jose, Calif.) was used to measure the absorbance at 492 nm. The relative viability was calculated by using 0.2% (w/v) sodium dodecyl sulfate (SDS) as the positive control, while cells exposed to medium without test compound were used as the negative control. […]

[5] = intraperitoneal; Czyzewski et al. 2016; cited from earlier work
[6] = in words; cited from earlier work
[7] = Small angle X-ray scattering, critical aggregation concentration from fit; format: physicochemical; conditions: Table 2; 10-mers, SAXS at ESRF, model fit
Protocol: SAXS experiments of the 10-mer peptoids were performed on the automated BM29 bioSAXS beamline at the European Synchrotron Radiation Facility (ESRF) in Grenoble, France. The data was obtained using an energy of 12.5 keV and a detector distance of 2.87 m, covering a q range (q=4π sin(θ/2)/λ), where θ is the scattering angle and λ is the X-ray wavelength) of about 0.0047 Å-1 to 0.5 Å-1. The data set was calibrated to an absolute intensity scale using water as a primary standard. Samples (40 μL) were run through a capillary using the flow mode of the automated sample changer. SAXS data was collected in ten successive frames of 0.5 s each to monitor radiation damage, and the data reduction was done using the standard tool at BM29.
The SAXS experiments on the fully iodinated 6-, 8-, and 12-mers to determine the CAC of the compounds were performed using a Bruker NANOSTAR equipped with a microfocus X-ray source (IμS Cu, Incoatec, Germany) and a VANTEC-2000 detector. Raw scattering data was calibrated to absolute intensity scale using water as a primary standard and radially averaged in order to obtain the 1D scattered intensity profile as a function of the scattering vector, with a wavelength of 1.54 Å.
where fagg is the fraction of peptoid chains aggregated in bundles, allowing for calculation of a CAC from ϕCAC=ϕ−(fagg*ϕ).

[8] = tested on: S. aureus and S. epidermidis; format: cell-based, Staphylococcus aureus, Staphylococcus epidermidis; conditions: span over the Gram-positive strains
Protocol: as §1

| Structure (SMILES) | MIC SA^a (S. aureus ATCC 25923; Table 4) [µg/mL] | MIC SA^a (S. aureus ATCC 25923; Table 5) [µg/mL] | MIC MRSA^b ([1]; Table 4) [µg/mL] | MIC MRSA^b ([1]; Table 5) [µg/mL] | MIC MRSE^d ([2]; Table 4) [µg/mL] | MIC MRSE^d ([2]; Table 5) [µg/mL] | MIC MRSE^c ([3]; Table 4) [µg/mL] | MIC MRSE^c ([3]; Table 5) [µg/mL] | MIC EC^e (E. coli ATCC 25922; Table 4) [µg/mL] | MIC EC^e (E. coli ATCC 25922; Table 5) [µg/mL] | MIC PA^f (P. aeruginosa PA01; Table 4) [µg/mL] | MIC PA^f (P. aeruginosa PA01; Table 5) [µg/mL] | IC50 at 1 h [4] [µg/mL] | tolerability intraperitoneally in vivo [5] | cytotoxicity in vitro [6] | CAC [7] [mg/mL] | MICs [8] [µg/mL] |
| --- | --- | --- | --- | --- | --- | --- | --- | --- | --- | --- | --- | --- | --- | --- | --- | --- | --- |
| C[C@@H](c1ccccc1)N(CC(N)=O)C(=O)CN(C(=O)CN(CCCCN)C(=O)CN(C(=O)CN(C(=O)CN(CCCCN)C(=O)CN(C(=O)CN(C(=O)CN(CCCCN)C(=O)CN(C(=O)CN(C(=O)CNCCCCN)[C@@H](C)c1ccccc1)[C@@H](C)c1ccccc1)[C@@H](C)c1ccccc1)[C@@H](C)c1ccccc1)[C@@H](C)c1ccccc1)[C@@H](C)c1ccccc1)[C@@H](C)c1ccccc1 [Peptoid 1, H-(NLys-Nspe-Nspe)4-NH2] (H-[Nlys][Nspe][Nspe][Nlys][Nspe][Nspe][Nlys][Nspe][Nspe][Nlys][Nspe][Nspe]-NH2) | 8 (≈ 4.4 µM) | 8 (≈ 4.4 µM) | 8 (≈ 4.4 µM) | 8 (≈ 4.4 µM) | 8 (≈ 4.4 µM) | 8 (≈ 4.4 µM) | 4 (≈ 2.2 µM) | 4 (≈ 2.2 µM) | 8 (≈ 4.4 µM) | 8 (≈ 4.4 µM) | 16 (≈ 8.79 µM) | 16 (≈ 8.79 µM) | 35 (≈ 19.2 µM) | reasonably well tolerated | relatively high cytotoxicity |  |  |
| NCCCCNCC(=O)N(CC(=O)N(CCCCN)CC(=O)N(CC(=O)N(CCCCN)CC(=O)N(CC(=O)N(CCCCN)CC(=O)N(CC(=O)N(CCCCN)CC(=O)N(CC(N)=O)Cc1ccc(Br)cc1)Cc1ccccc1)Cc1ccc(Br)cc1)Cc1ccccc1)Cc1ccc(Br)cc1 [Compound 26] (H-[Nlys][N(4-Br-benzyl)Gly][Nlys][Nphe][Nlys][N(4-Br-benzyl)Gly][Nlys][Nphe][Nlys][N(4-Br-benzyl)Gly]-NH2) |  |  |  |  |  |  |  |  |  |  |  |  |  |  |  | >5 | 1 to 8 |
